The values that follow are results of earlier work, collected in patent US20240180903A1, “INJECTABLE PHARMACEUTICAL COMPOSITION, PREPARATION METHOD THEREFOR AND USE THEREOF” (ZHEJIANG CUIZE PHARMACEUTICAL TECHNOLOGY CO., LTD., priority 2022, published 2024).

The subject of one series is HIV. The following applies: read-out: IC50 against HIV.
For a further series, the system named is HIV RNA in plasma. Particulars: oral 5 mg/d or 30 mg/d, 10 d after a single dose.

For the compound `C[C@H]1CO[C@@H]2Cn3cc(C(=O)NCc4ccc(F)cc4F)c(=O)c(O)c3C(=O)N12` [Cabotegravir], the IC50 (as a rule, the concentration needed to halve the response being measured) in the series with HIV was 0.22 nM. In addition, the “HIV RNA in plasma” value with HIV RNA in plasma is 2.2-2.3 copies/mL.
